Measurements: patent publication US20150141433A1, “N-ARYLMETHYL SULFONAMIDE NEGATIVE MODULATORS OF NR2A” (Mnemosyne Pharmaceuticals, Inc., priority 2013, published 2015)
pIC50: −log10 of the molar value. Like-named read-outs stand apart in the source and are kept apart here.

Target: T1, NR1/NR2A (Homo sapiens, UniProt Q05586+Q12879)
T1 construct: host or cells: HEK293 (tetracycline-inducible NR2A expression)
Experiment: FDSS Ca2+ influx inhibition assay in HEK293 cells expressing NR1/NR2A
Assay type: cell-based
Protocol: Cell Culture and plating: HEK293 cells expressing NR1/NR2A (Chantest, Cleveland, Ohio) were grown to 70-80% confluency as an adherent monolayer in standard tissue culture flasks at 37° C., 5% CO2 per supplier's instructions.
After induction, cell culture medium was removed and cells were rinsed once with Ca^2+ and Mg^2+-free Dulbecco's phosphate buffered saline. Cells were then removed from the flask using TrypLE™ Express (Life Technologies) according to the manufacturer's instructions and collected to 50 ml centrifuge tubes. Following two washes in Ca^27 Mg^2′-free HBSS with 20 mM HEPES (HHnoCa), cells were counted and viability assessed using trypan blue. To load cells with Ca^2′-sensitive dye, they were resuspended in fluo-8 plus Component B (AAT Bioquest Products) diluted in HHnoCa and incubated 15 minutes at 37° C., followed by 30 minutes at room temp (in dark). Cells were then washed and resuspended in HHnoCa to remove extracellular dye and plated in 384-well plates (Falcon, uncoated) at 20,000-30,000 cells/well in a final volume of 25 μL/well.
FDSS Assay: To each well of the plate, 10 μLtest compound, control (MK801) or HHnoCa buffer was added to a final concentration of 10 μM with a final concentration of DMSO of 0.1%. Following 10 minutes pre-incubation in the dark, plates are loaded onto the Hamamatsu FDSS 6000. After collecting baseline fluorescence images, 3 μM glutamate, 3 μM glycine, and 1 mM Ca^2+ in HHnoCa buffer is added to each well, and Ca^2+ is recorded for 3 minutes. Data were processed by computing ratio of fluorescence at the end of data collection to baseline fluorescence to assess degree of Ca^2+ influx inhibition relative to that observed in MK801.

[1] = 3 μM glutamate, 3 μM glycine, 1 mM Ca2+, Ca2+ influx inhibition relative to MK801, read-out: NR2A IC50
[2] = binned NR2A inhibition concentration, read-out: Binned Activity

T1 sequence (Q12879 23-1464, other chains not shown): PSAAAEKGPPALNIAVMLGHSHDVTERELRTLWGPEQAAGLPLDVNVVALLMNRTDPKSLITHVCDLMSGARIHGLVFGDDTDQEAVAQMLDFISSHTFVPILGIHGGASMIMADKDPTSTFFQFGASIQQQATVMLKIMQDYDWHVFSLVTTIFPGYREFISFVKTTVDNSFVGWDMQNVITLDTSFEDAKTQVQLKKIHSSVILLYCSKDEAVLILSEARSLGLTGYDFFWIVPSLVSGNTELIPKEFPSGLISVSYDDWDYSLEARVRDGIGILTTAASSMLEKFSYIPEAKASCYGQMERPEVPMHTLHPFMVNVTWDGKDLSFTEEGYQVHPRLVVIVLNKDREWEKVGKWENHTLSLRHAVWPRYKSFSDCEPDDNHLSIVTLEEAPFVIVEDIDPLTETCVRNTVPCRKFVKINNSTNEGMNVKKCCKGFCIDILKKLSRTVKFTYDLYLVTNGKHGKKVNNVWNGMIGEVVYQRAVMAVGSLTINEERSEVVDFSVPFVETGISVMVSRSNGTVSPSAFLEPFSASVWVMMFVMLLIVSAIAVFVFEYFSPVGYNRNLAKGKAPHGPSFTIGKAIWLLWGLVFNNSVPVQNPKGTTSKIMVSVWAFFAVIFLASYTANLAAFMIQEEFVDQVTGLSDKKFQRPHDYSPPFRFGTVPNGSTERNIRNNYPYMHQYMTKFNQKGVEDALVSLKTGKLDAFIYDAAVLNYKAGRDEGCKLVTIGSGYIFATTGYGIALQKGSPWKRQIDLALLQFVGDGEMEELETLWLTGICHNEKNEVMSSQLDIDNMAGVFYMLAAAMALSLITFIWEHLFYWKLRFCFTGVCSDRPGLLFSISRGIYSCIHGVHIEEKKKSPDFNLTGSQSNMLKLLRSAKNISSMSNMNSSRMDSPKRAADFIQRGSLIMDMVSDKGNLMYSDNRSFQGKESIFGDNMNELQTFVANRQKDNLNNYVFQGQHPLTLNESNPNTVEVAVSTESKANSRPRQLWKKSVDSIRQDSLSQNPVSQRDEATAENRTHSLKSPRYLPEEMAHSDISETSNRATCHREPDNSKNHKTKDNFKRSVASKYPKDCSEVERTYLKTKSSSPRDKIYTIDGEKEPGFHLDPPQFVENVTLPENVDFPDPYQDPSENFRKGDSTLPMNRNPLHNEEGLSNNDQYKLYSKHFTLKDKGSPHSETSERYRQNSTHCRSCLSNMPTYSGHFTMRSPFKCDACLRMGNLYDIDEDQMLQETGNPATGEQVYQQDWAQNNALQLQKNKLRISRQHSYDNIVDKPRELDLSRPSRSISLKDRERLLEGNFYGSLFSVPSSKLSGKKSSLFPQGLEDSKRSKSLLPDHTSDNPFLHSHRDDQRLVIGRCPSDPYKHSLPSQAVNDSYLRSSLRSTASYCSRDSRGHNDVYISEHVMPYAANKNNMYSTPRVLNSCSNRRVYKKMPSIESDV

Cc1csc(CNC(=O)c2cnc(CNS(=O)(=O)c3ccc(F)c(Cl)c3)cn2)n1 [5-(3-chloro-4-fluorobenzenesulfon-amidomethyl)-N-[(4-methyl-1,3-thiazol-2-yl)methyl]pyrazine-2-carboxamide]
pIC50 [1]: ≤ 5.00 | pIC50 [2]: < 5.00

Cc1ccncc1CNC(=O)c1cnc(CNS(=O)(=O)c2ccc(F)c(Cl)c2)cn1 [5-(3-chloro-4-fluorobenzenesulfon-amidomethyl)-N-[(4-methylpyridin-3-yl)methyl]pyrazine-2-carboxamide]
pIC50 [1]: 6.97

Cc1ccncc1CNC(=O)c1ccc(CNS(=O)(=O)c2ccc(F)c(Cl)c2)cn1 [5-(3-chloro-4-fluorobenzenesulfon-amidomethyl)-N-[(4-methylpyridin-3-yl)methyl]pyridine-2-carboxamide]
pIC50 [1]: 6.73

O=C(NCc1cncc(F)c1)c1cnc(CNS(=O)(=O)c2ccc(F)c(Cl)c2)cn1 [5-(3-chloro-4-fluorobenzenesulfon-amidomethyl)-N-[(5-fluoropyridin-3-yl)methyl]pyrazine-2-carboxamide]
pIC50 [1]: 5.96

Cc1nnc(CNC(=O)c2cnc(CNS(=O)(=O)c3ccc(F)c(Cl)c3)cn2)o1 [5-(3-chloro-4-fluorobenzenesulfon-amidomethyl)-N-[(5-methyl-1,3,4-oxadiazol-2-yl)methyl]pyrazine-2-carboxamide]
pIC50 [1]: 5.61

Cc1nnc(CNC(=O)c2ccc(CNS(=O)(=O)c3ccc(F)c(Cl)c3)cn2)o1 [5-(3-chloro-4-fluorobenzenesulfon-amidomethyl)-N-[(5-methyl-1,3,4-oxadiazol-2-yl)methyl]pyridine-2-carboxamide]
pIC50 [1]: 5.55

Cc1nnc(CNC(=O)c2cnc(CNS(=O)(=O)c3ccc(F)c(Cl)c3)cn2)s1 [5-(3-chloro-4-fluorobenzenesulfon-amidomethyl)-N-[(5-methyl-1,3,4-thiadiazol-2-yl)methyl]pyrazine-2-carboxamide]
pIC50 [1]: 6.20

Cc1nnc(CNC(=O)c2ccc(CNS(=O)(=O)c3ccc(F)c(Cl)c3)cn2)s1 [5-(3-chloro-4-fluorobenzenesulfon-amidomethyl)-N-[(5-methyl-1,3,4-thiadiazol-2-yl)methyl]pyridine-2-carboxamide]
pIC50 [1]: 5.99

Cc1cnc(CNC(=O)c2cnc(CNS(=O)(=O)c3ccc(F)c(Cl)c3)cn2)cn1 [5-(3-chloro-4-fluorobenzenesulfon-amidomethyl)-N-[(5-methylpyrazin-2-yl)methyl]pyrazine-2-carboxamide]
pIC50 [1]: 5.90

COc1ccc(CNC(=O)c2ccc(CNS(=O)(=O)c3ccc(F)c(Cl)c3)cn2)cn1 [5-(3-chloro-4-fluorobenzenesulfon-amidomethyl)-N-[(6-methoxypyridin-3-yl)methyl]pyridine-2-carboxamide]
pIC50 [1]: 5.70

Cc1ncc(CNC(=O)c2cnc(CNS(=O)(=O)c3cccc(Cl)c3)c(C)n2)s1 [5-(3-chlorobenzenesulfon-amidomethyl)-6-methyl-N-[(2-methyl-1,3-thiazol-5-yl)methyl]pyrazine-2-carboxamide]
pIC50 [1]: 7.40

Cc1ncc(CNC(=O)c2cnc(CNS(=O)(=O)c3cccc(Cl)c3)cn2)s1 [5-(3-chlorobenzenesulfon-amidomethyl)-N-[(2-methyl-1,3-thiazol-5-yl)methyl]pyrazine-2-carboxamide]
pIC50 [1]: 6.08

Cc1ncc(CNC(=O)c2ccc(CNS(=O)(=O)c3cccc(Cl)c3)cn2)s1 [5-(3-chlorobenzenesulfon-amidomethyl)-N-[(2-methyl-1,3-thiazol-5-yl)methyl]pyridine-2-carboxamide]
pIC50 [1]: 5.98

Cc1ncc(CNC(=O)c2cnc(CNS(=O)(=O)c3ccc(Cl)c(F)c3)c(C)n2)s1 [5-(4-chloro-3-fluorobenzenesulfon-amidomethyl)-6-methyl-N-[(2-methyl-1,3-thiazol-5-yl)methyl]pyrazine-2-carboxamide]
pIC50 [1]: 5.99

Cc1ncc(CNC(=O)c2ccc(CNS(=O)(=O)c3ccc(Cl)c(F)c3)cn2)s1 [5-(4-chloro-3-fluorobenzenesulfon-amidomethyl)-N-[(2-methyl-1,3-thiazol-5-yl)methyl]pyridine-2-carboxamide]
pIC50 [1]: 5.13

Cc1ncc(CNC(=O)c2cnc(CNS(=O)(=O)c3ccc(F)cc3)c(C)n2)s1 [5-(4-fluorobenzenesulfon-amidomethyl)-6-methyl-N-[(2-methyl-1,3-thiazol-5-yl)methyl]pyrazine-2-carboxamide]
pIC50 [1]: 6.86

Cc1ncc(CNC(=O)c2cnc(CNS(=O)(=O)c3ccc(F)cc3)cn2)s1 [5-(4-fluorobenzenesulfon-amidomethyl)-N-[(2-methyl-1,3-thiazol-5-yl)methyl]pyrazine-2-carboxamide]
pIC50 [1]: 5.26

Cc1ncc(CNC(=O)c2ccc(CNS(=O)(=O)c3ccc(F)cc3)cn2)s1 [5-(4-fluorobenzenesulfon-amidomethyl)-N-[(2-methyl-1,3-thiazol-5-yl)methyl]pyridine-2-carboxamide]
pIC50 [1]: 5.55

Cc1ncc(CNC(=O)c2cnc(CNS(=O)(=O)c3cc(Cl)ccc3F)c(C)n2)s1 [5-(5-chloro-2-fluorobenzenesulfon-amidomethyl)-6-methyl-N-[(2-methyl-1,3-thiazol-5-yl)methyl]pyrazine-2-carboxamide]
pIC50 [1]: 5.09

O=C(NCc1cnccn1)c1ccc(CNS(=O)(=O)c2ccc(F)c(Cl)c2)nc1 [6-(3-chloro-4-fluorobenzenesulfon-amidomethyl)-N-(pyrazin-2-ylmethyl)pyridine-3-carboxamide]
pIC50 [1]: 6.10

O=C(NCc1cccnc1)c1ccc(CNS(=O)(=O)c2ccc(F)c(Cl)c2)nc1 [6-(3-chloro-4-fluorobenzenesulfon-amidomethyl)-N-(pyridin-3-ylmethyl)pyridine-3-carboxamide]
pIC50 [1]: 4.96

C[C@@H](NC(=O)c1ccc(CNS(=O)(=O)c2ccc(F)c(Cl)c2)nc1)c1cncs1 [6-(3-chloro-4-fluorobenzenesulfon-amidomethyl)-N-[(1R)-1-(1,3-thiazol-5-yl)ethyl]pyridine-3-carboxamide]
pIC50 [1]: ≤ 5.00 | pIC50 [2]: < 5.00

Cc1ccncc1CNC(=O)c1ccc(CNS(=O)(=O)c2ccc(F)c(Cl)c2)nc1 [6-(3-chloro-4-fluorobenzenesulfon-amidomethyl)-N-[(4-methylpyridin-3-yl)methyl]pyridine-3-carboxamide]
pIC50 [1]: 5.01

Cc1cnc(CNC(=O)c2ccc(CNS(=O)(=O)c3ccc(F)c(Cl)c3)nc2)cn1 [6-(3-chloro-4-fluorobenzenesulfon-amidomethyl)-N-[(5-methylpyrazin-2-yl)methyl]pyridine-3-carboxamide]
pIC50 [1]: 6.20

Cn1ccnc1CNC(=O)c1ccc(CNS(=O)(=O)c2ccc(F)c(Cl)c2)nc1 [6-(3-chloro-4-fluorobenzenesulfon-amidomethyl)-N-[(l-methyl-1H-imidazol-2-yl)methyl]pyridine-3-carboxamide]
pIC50 [1]: 6.97

Cc1ncc(CNC(=O)c2cnc(CNS(=O)(=O)c3cccs3)cn2)s1 [N-[(2-methyl-1,3-thiazol-5-yl)methyl]-5-(thiophene-2-sulfonamidomethyl) pyrazine-2-carboxamide]
pIC50 [1]: 5.42

Cc1ncc(CNC(=O)c2ccc(CNS(=O)(=O)c3cccs3)cn2)s1 [N-[(2-methyl-1,3-thiazol-5-yl)methyl]-5-(thiophene-2-sulfonamidomethyl) pyridine-2-carboxamide]
pIC50 [1]: 5.40
